Results from PubChem BioAssay (NCI).
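Growth conditions: 96-well plates. Treatment: test compound, 48 hours, 5 concentrations. Analysis: linear interpolation between bracketing concentrations; unreached endpoints set to highest concentration. At the GI50, growth is halved. Definition used: TGI = concentration required for complete inhibition of growth.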

Experiments:
Assay in all cases: DTP human tumour cell line panel, 48 h
UACC-62 melanoma = tested on: UACC-62 melanoma
HCT-15 colon = tested on: HCT-15 colon
A549 NSCLC = tested on: A549 NSCLC
UACC-257 melanoma = tested on: UACC-257 melanoma
KM12 colon = tested on: KM12 colon
M14 melanoma = tested on: M14 melanoma
HCC-2998 colon = tested on: HCC-2998 colon
SN12C renal = tested on: SN12C renal
SF-268 CNS = tested on: SF-268 CNS
SR leukemia = tested on: SR leukemia

Compound	TGI (UACC-62 melanoma) [µM]	TGI (HCT-15 colon) [µM]	TGI (A549 NSCLC) [µM]	TGI (UACC-257 melanoma) [µM]	TGI (KM12 colon) [µM]	TGI (M14 melanoma) [µM]	TGI (HCC-2998 colon) [µM]	TGI (SN12C renal) [µM]	TGI (SF-268 CNS) [µM]	GI50 (UACC-62 melanoma) [µM]	GI50 (HCT-15 colon) [µM]	GI50 (A549 NSCLC) [µM]	GI50 (UACC-257 melanoma) [µM]	GI50 (KM12 colon) [µM]	GI50 (M14 melanoma) [µM]	GI50 (HCC-2998 colon) [µM]	GI50 (SN12C renal) [µM]	GI50 (SF-268 CNS) [µM]	TGI (SR leukemia) [µM]	GI50 (SR leukemia) [µM]
CCOC(=O)/C(O)=C(/c1n[nH]c(=O)c2ccccc12)[N+](=O)[O-]	> 100	> 100	> 100	> 100	> 100	> 100	> 100	> 100	> 100	–	–	–	–	–	–	–	–	–	–	–
CCOC(=O)C12CCCC1(O)N(NC(=O)c1ccccc1)C(C)=C2C(=O)OC (stereo unspecified)	> 100	> 100	> 100	> 100	> 100	> 100	> 100	> 100	> 100	–	–	–	–	–	–	–	–	–	–	–
CC(=O)[CH-]C(=O)c1ccccc1.CC(=O)[CH-]C(=O)c1ccccc1.CC[O-].CC[O-].[Zr+4]	> 100	> 100	> 100	> 100	> 100	> 100	> 100	> 100	> 100	> 100	> 100	> 100	> 100	> 100	> 100	> 100	> 100	> 100	–	–
Nc1nc(N)c(N=O)c(Nc2ccc(O)cc2)n1	> 100	> 100	> 100	> 100	> 100	–	> 100	> 100	> 83.8	–	–	–	–	–	–	–	–	–	97.7	–
COc1ccc(N(CC(=O)NCCC[Te]c2ccccc2)C(=O)c2ccccc2)cc1	7.5	15	2.14	–	11.9	15.4	8.21	8.51	10.8	2.53	2.95	0.382	–	3.13	4.21	3.03	2.7	3.19	–	2.82
COc1ccc(C(=O)C(c2ccc(OC)cc2)C2(O)C(=O)Nc3ccccc32)cc1 (stereo unspecified)	> 100	> 100	> 100	> 100	> 100	> 100	–	> 100	> 100	–	–	–	–	–	–	–	–	–	> 100	–
CC(=O)OC(/C=C1/C=CC(=O)O1)COC(=O)c1ccccc1 (stereo unspecified)	> 31.2	–	> 31.2	> 31.2	> 31.2	> 31.2	> 31.2	> 31.2	> 31.2	–	–	–	–	–	–	–	–	–	–	–
COc1cc(/C=C2/C(=O)N(C(=O)OC(C)C)C(Cc3cc(OC)c(OC)c(C)c3OC)C(=O)N2Cc2ccccc2)c(OC)c(C)c1OC (stereo unspecified)	> 100	–	> 100	> 100	> 100	> 100	> 100	> 100	> 100	–	–	–	–	–	–	–	–	–	51.1	–
COc1ccccc1OCC(=O)Nc1sc2c(c1C(N)=O)CCC2	> 100	> 100	> 100	–	> 100	> 100	> 100	> 100	> 100	38.1	33.4	32.4	–	> 100	> 100	> 100	> 100	> 100	> 100	> 100
